Measured values published in patent publication US10166218B2, “3-(1H-indol-2-yl)-1H-pyrazolo[3,4-C]pyridines and therapeutic uses thereof” (Samumed, LLC, priority 2015, dated 2019).

Key:
Assay type in all cases: cell-based
IL-6 (THP-1 cells) = assay: Inhibition of IL-6 in LPS-stimulated THP-1 human monocyte cells (HTRF); details: inhibition of IL-6 in LPS-stimulated THP-1 cells, HTRF, 10-point dose-response starting from 10 μM
Method: Human monocyte cell line (THP-1 cells; Catalog # TIB-202, ATCC, Manassas, Va.) were cultured in Roswell Park Memorial Institute (RPMI) 1640 Medium (Catalog #21870-100, Buffalo, N.Y.) with 1% L-glutamine, 1% HEPES, 1% Sodium Pyruvate, 2% Sodium Bicarbonate supplemented with 100 units/mL penicillin, 50 μg/mL streptomycin, 2-mercaptoethanol (0.05 mM) [basal medium] and 10% fetal bovine serum (Catalog #16140089, Life Technologies, Carlsbad, Calif.) at 37° C. and 5% CO2.
THP-1 cells were cultured in basal media with 1% FBS for 24 hours before the start of the assay. Each compound was dissolved in DMSO as a 10 mM stock and used to prepare compound source plates. Serial dilution (1:3, 10-point dose-response curves starting from 10 μM) and compound transfer was performed using the ECHO 550 (Labcyte, Sunnyvale, Calif.) into 384-well white low volume assay plates (Greiner Bio-One) with appropriate DMSO backfill for a final DMSO concentration of 0.1%. THP-1 cells were plated at 5000 cells/well in the 384-well plates and incubated at 37° C. for 2 h. 500 ng/mL of LPS was added after 2 hours and cells were incubated for another 22 hours at 37° C. Plates were spun in a centrifuge for 1 minute at […] and a mixture of anti-IL6 XL665, and anti-IL6 Cryptate diluted in reconstitution buffer (Cisbio Inc.) was added to each well. Following incubation for 3 hrs at room temperature, Homogeneous Time-Resolved Fluorescence (HTRF) was measured using the Envision (Perkin Elmer) at 665 nm and […]. The ratio of fluorescence at 665 nm to 620 nm was used as a readout for IL6 quantification. All samples were processed in duplicate. Readings were normalized to DMSO treated cells and normalized activities were utilized for EC50 calculations using the dose-response log (inhibitor) vs. response-variable slope (four parameters) nonlinear regression feature available in GraphPad Prism 5.0 (or Dotmatics). For EC50 of >10 μM, the percent inhibition at 10 μM is provided.

[1] = system: Wnt activity (Sp5-Luc reporter, TCF/LEF binding sites) in SW480 colon carcinoma cells; assay: Screening assay for Wnt activity: Sp5-Luc reporter gene assay in stably transduced SW480 cells; details: Homo sapiens, overnight incubation
From the text: The screening assay for Wnt activity is described as follows. Reporter cell lines can be generated by stably transducing cancer cell lines (e.g., colon cancer) or primary cells (e.g., IEC-6 intestinal cells) with a lentiviral construct that includes a Wnt-responsive promoter driving expression of the firefly luciferase gene.
SW480 colon carcinoma cells were transduced with a lentiviral vector expressing luciferase with a human Sp5 promoter consisting of a sequence of eight TCF/LEF binding sites. SW480 cells stably expressing the Sp5-Luc reporter gene and a hygromycin resistance gene were selected by treatment with 150 μg/mL of hygromycin for 7 days. These stably transduced SW480 cells were expanded in cell culture and used for all further screening activities. Each compound was dissolved in DMSO as a 10 mM stock and used to prepare compound source plates. Serial dilution (1:3, 10-point dose-response curves starting from 10 μM) and compound transfer was performed using the ECHO 550 (Labcyte, Sunnyvale, Calif.) into 384-well white solid bottom assay plates (Greiner Bio-One) with appropriate DMSO backfill for a final DMSO concentration of 0.1%. For Sp5-Luc reporter gene assays, the cells were plated at 4,000 cells/well in 384-well plates with medium containing 1% fetal bovine serum and incubated overnight at 37° C. and 5% CO2. Following incubation, 20 μl of BrightGlo luminescence reagent (Promega) was added to each well of the 384-well assay plates. The plates were placed on an orbital shaker for 2 min and then luminescence was quantified using the Envision (Perkin Elmer) plate reader. Readings were normalized to DMSO only treated cells, and normalized activities were utilized for EC50 calculations using the dose-response log (inhibitor) vs. response-variable slope (four parameters) nonlinear regression feature available in GraphPad Prism 5.0 (or Dotmatics). For EC50 of >10 μM, the percent inhibition at 10 μM is provided.

[2] = system: primary human fibroblasts derived from IPF patients (LL29 cells) treated with TGF-β1; α-smooth muscle actin (αSMA); assay: Inhibition of the fibrotic process: αSMA staining in TGF-β1 treated primary human fibroblasts from IPF patients (LL29 cells); details: Fibroblast, 96 h, TGF-β1 20 ng/mL, 4 days, % cells positive for αSMA
From the text: Representative compounds were screened using primary human fibroblasts (derived from IPF patients) treated with TGF-β1 to determine their ability to inhibit the fibrotic process.
Primary human fibroblasts derived from IPF patients (LL29 cells) [^1Xiaoqiu Liu, et. al., “Fibrotic Lung Fibroblasts Show Blunted Inhibition by cAMP Due to Deficient cAMP Response Element-Binding Protein Phosphorylation”, Journal of Pharmacology and Experimental Therapeutics (2005), 315(2), 678-687; ^2Watts, K. L., et. al., “RhoA signaling modulates cyclin D1 expression in human lung fibroblasts; implications for idiopathic pulmonary fibrosis”, Respiratory Research (2006), 7(1), 88] were obtained from American Type Culture Collection (ATCC) and expanded in F12 medium supplemented with 15% Fetal Bovine Serum and Penicillin/Streptomycin.
Each compound was dissolved in DMSO as a 10 mM stock and used to prepare compound source plates. Serial dilution (1:2, 11-point dose-response curves from 10 μM to 1.87 nM) and compound transfer was performed using the ECHO 550 (Labcyte, Sunnyvale, Calif.) into 384-well clear bottom assay plates (Greiner Bio-One) with appropriate DMSO backfill for a final DMSO concentration of 0.1%. LL29 cells are plated at 1,500 cells/well in 80 μL/well F12 medium supplemented with 1% Fetal Bovine Serum. One hour after addition of the cells, TGF-β1 (Peprotech; 20 ng/mL) was added to the plates to induce fibrosis (ref. 1 and 2 above). Wells treated with TGF-β1 and containing DMSO were used as controls. Cells were incubated at 37° C. and 5% CO2 for 4 days. Following incubation for 4 days, SYTOX green nucleic acid stain (Life Technologies [Thermo Fisher Scientific]) was added to the wells at a final concentration of 1 μM and incubated at room temperature for 30 min. Cells were then fixed using 4% formaldehyde (Electron Microscopy Sciences), washed 3 times with PBS followed by blocking and permeabilization using 3% Bovine Serum Albumin (BSA; Sigma) and 0.3% Triton X-100 (Sigma) in PBS. Cells were then stained with antibody specific to α-smooth muscle actin (αSMA; Abcam) (ref. 1 and 2 above) in 3% Bovine Serum Albumin (BSA; Sigma) and 0.3% Triton X-100 (Sigma) in PBS, and incubated overnight at 4° C. Cells were then washed 3 times with PBS, followed by incubation with Alexa Flor-647 conjugated secondary antibody (Life Technologies [Thermo Fisher Scientific]) and DAPI at room temperature for 1 hour. Cells were then washed 3 times with PBS and plates were sealed for imaging. αSMA staining was imaged by excitation at 630 nm and emission at 665 nm and quantified using the Compartmental Analysis program on the CellInsight CX5 (Thermo Scientific). Dead or apoptotic cells were excluded from analysis based on positive SYTOX green staining. % of total cells positive for αSMA were counted in each well and normalized to the average of 11 wells treated with TGF-β1 on the same plate using Dotmatics' Studies Software. The normalized averages (fold change over untreated) of 3 replicate wells for each compound concentration were used to create dose-responses curves and EC50 values were calculated using non-linear regression curve fit in the Dotmatics' Studies Software. For EC50 of >10 μM, the percent inhibition at 10 μM is provided.

SW480 colon cancer cells = assay: Cell viability assay (CellTiter-Blue) in SW480 colon cancer cells; details: Homo sapiens, 96 h, four days, CellTiter-Blue
Method: Representative compounds were screened using the following assay procedure to assess the effect on cell viability as described below.
Each compound was dissolved in DMSO as a 10 mM stock and used to prepare compound source plates. Serial dilution (1:3, 8-point dose-response curves from 10 μM to 0.0045 μM) and compound transfer was performed using the ECHO 550 (Labcyte, Sunnyvale, Calif.) into 96-well clear bottom, black-walled plates (Corning-Costar).
Approximately 2×10^3 SW480 colon cancer cells were seeded into each well and allowed to incubate in the presence or absence of compound for four days at 37° C./5% CO2. Eight replicates of DMSO-treated cells served as controls and cells treated with compound were performed in duplicate.
After incubation, 20 μL of CellTiter-Blue (Promega) was added to each well allowed to incubate for approximately 3 hours. This reagent was a buffered solution which contains resazurin, metabolically active cells were able to reduce rezarurin (blue) into resorufin (pink) which was highly fluorescent. This measured fluorescence was used as a readout for cell viability.
After incubation, the plates were read at Ex 560 nm Em 590 nm (Cytation 3, BioTek). Dose-response curves were generated and EC50 concentration values were calculated using non-linear regression curve fit in the GraphPad Prism (San Diego, Calif.) or Dotmatics' Studies Software (Bishops Stortford, UK). For EC50 of >10 μM, the percent inhibition at 10 μM is provided.

Fc1cccc(-c2cccc3[nH]c(-c4n[nH]c5cnc(-c6cncc(OCc7ccccc7)c6)cc45)cc23)c1 [Compound 546, 5-(5-(Benzyloxy)pyridin-3-yl)-3-(4-(3-fluorophenyl)-1H-indol-2-yl)-1H-pyrazolo[3,4-c]pyridine]
EC50 (IL-6 (THP-1 cells)): 3990 nM
EC50 [1]: 421 nM
EC50 [2]: 234 nM
EC50 (SW480 colon cancer cells): 365 nM

CN(C)Cc1cncc(-c2cc3c(-c4cc5c(N6CCN(C)CC6)cccc5[nH]4)n[nH]c3cn2)c1 [Compound 237, N,N-Dimethyl-1-(5-(3-(4-(4-methylpiperazin-1-yl)-1H-indol-2-yl)-1H-pyrazolo[3,4-c]pyridin-5-yl)pyridin-3-yl)methanamine]
EC50 (IL-6 (THP-1 cells)): 3610 nM
EC50 [1]: 3400 nM
EC50 [2]: 7320 nM
EC50 (SW480 colon cancer cells): 3800 nM

O=C(Nc1cncc(-c2cc3c(-c4cc5c(-c6ccccn6)cccc5[nH]4)n[nH]c3cn2)c1)C1CCCCC1 [Compound 163, N-(5-(3-(4-(Pyridin-2-yl)-1H-indol-2-yl)-1H-pyrazolo[3,4-c]pyridin-5-yl)pyridin-3-yl)cyclohexanecarboxamide]
EC50 (IL-6 (THP-1 cells)): 2490 nM
EC50 [1]: 550 nM
EC50 [2]: 81 nM
EC50 (SW480 colon cancer cells): 938 nM

c1ccc(-c2cc3c(-c4cc5c(-c6ccncc6)cccc5[nH]4)n[nH]c3cn2)nc1 [Compound 140, 5-(Pyridin-2-yl)-3-(4-(pyridin-4-yl)-1H-indol-2-yl)-1H-pyrazolo[3,4-c]pyridine]
EC50 (IL-6 (THP-1 cells)): 481 nM
EC50 [1]: 485 nM
EC50 [2]: 319 nM
EC50 (SW480 colon cancer cells): 370 nM

CC(C)Nc1cncc(-c2cc3c(-c4cc5c(N6CCCCC6)cccc5[nH]4)n[nH]c3cn2)c1 [Compound 180, N-Isopropyl-5-(3-(4-(piperidin-1-yl)-1H-indol-2-yl)-1H-pyrazolo[3,4-c]pyridin-5-yl)pyridin-3-amine]
EC50 (IL-6 (THP-1 cells)): 1000 nM
EC50 [1]: 362 nM
EC50 [2]: 267 nM
EC50 (SW480 colon cancer cells): 1730 nM

Cc1ncc(-c2cc3c(-c4cc5ccccc5[nH]4)n[nH]c3cn2)n1C [Compound 681, 5-(1,2-Dimethyl-1H-imidazol-5-yl)-3-(1H-indol-2-yl)-1H-pyrazolo[3,4-c]pyridine]
EC50 (IL-6 (THP-1 cells)): 954 nM
EC50 [1]: 754 nM
EC50 [2]: 292 nM
EC50 (SW480 colon cancer cells): 1520 nM

CCC(=O)Nc1cncc(-c2cc3c(-c4cc5c(-c6cccs6)cccc5[nH]4)n[nH]c3cn2)c1 [Compound 337, N-(5-(3-(4-(Thiophen-2-yl)-1H-indol-2-yl)-1H-pyrazolo[3,4-c]pyridin-5-yl)pyridin-3-yl)propionamide]
EC50 (IL-6 (THP-1 cells)): 7120 nM
EC50 [1]: 911 nM
EC50 [2]: 387 nM
EC50 (SW480 colon cancer cells): 3420 nM

CC(C)Nc1cncc(-c2cc3c(-c4cc5c(-c6ccccc6F)cccc5[nH]4)n[nH]c3cn2)c1 [Compound 68, 5-(3-(4-(2-Fluorophenyl)-1H-indol-2-yl)-1H-pyrazolo[3,4-c]pyridin-5-yl)-N-isopropylpyridin-3-amine]
EC50 (IL-6 (THP-1 cells)): 3100 nM
EC50 [1]: 494 nM
EC50 [2]: 215 nM
EC50 (SW480 colon cancer cells): 1610 nM

c1cncc(-c2cc3c(-c4cc5ccccc5[nH]4)n[nH]c3cn2)c1 [Compound 256, 3-(1H-Indol-2-yl)-5-(pyridin-3-yl)-1H-pyrazolo[3,4-c]pyridine]
EC50 (IL-6 (THP-1 cells)): 56 nM
EC50 [1]: 185 nM
EC50 [2]: 51 nM
EC50 (SW480 colon cancer cells): 2250 nM

CN(C)CCNc1cc(F)cc(-c2cccc3[nH]c(-c4n[nH]c5cnc(-c6cncc(NC(=O)C7CC7)c6)cc45)cc23)c1 [Compound 468, N-(5-(3-(4-(3-((2-(Dimethylamino)ethyl)amino)-5-fluorophenyl)-1H-indol-2-yl)-1H-pyrazolo[3,4-c]pyridin-5-yl)pyridin-3-yl)cyclopropanecarboxamide]
EC50 (IL-6 (THP-1 cells)): 866 nM
EC50 [1]: 1310 nM
EC50 [2]: 3510 nM
EC50 (SW480 colon cancer cells): 1980 nM

CS(=O)(=O)NCc1cc(F)cc(-c2cccc3[nH]c(-c4n[nH]c5cnc(-c6cncc(CNCC7CCCC7)c6)cc45)cc23)c1 [Compound 501, N-(3-(2-(5-(5-(((Cyclopentylmethyl)amino)methyl)pyridin-3-yl)-1H-pyrazolo[3,4-c]pyridin-3-yl)-1H-indol-4-yl)-5-fluorobenzyl)methanesulfonamide]
EC50 (IL-6 (THP-1 cells)): 1030 nM
EC50 [1]: 1340 nM
EC50 [2]: 463 nM
EC50 (SW480 colon cancer cells): 2250 nM
